This is an account of results in US20090203705A1, “Spiro Compounds As NPY Y5 Receptor Antagonists” (priority 2008, published 2009).

Structures can show the parent of a compound that is named as a salt. A value given as a limit tells only on which side of the number the result lay.

The target of one assay is T1, human NPY Y5 receptor (Homo sapiens, UniProt Q15761).
T1 construct: expressed in transfected cells; host or cells: HEK293 (cell line HEK 293 signal-hNPY Y5/G16z49)
T1 sequence (Q15761 1-445): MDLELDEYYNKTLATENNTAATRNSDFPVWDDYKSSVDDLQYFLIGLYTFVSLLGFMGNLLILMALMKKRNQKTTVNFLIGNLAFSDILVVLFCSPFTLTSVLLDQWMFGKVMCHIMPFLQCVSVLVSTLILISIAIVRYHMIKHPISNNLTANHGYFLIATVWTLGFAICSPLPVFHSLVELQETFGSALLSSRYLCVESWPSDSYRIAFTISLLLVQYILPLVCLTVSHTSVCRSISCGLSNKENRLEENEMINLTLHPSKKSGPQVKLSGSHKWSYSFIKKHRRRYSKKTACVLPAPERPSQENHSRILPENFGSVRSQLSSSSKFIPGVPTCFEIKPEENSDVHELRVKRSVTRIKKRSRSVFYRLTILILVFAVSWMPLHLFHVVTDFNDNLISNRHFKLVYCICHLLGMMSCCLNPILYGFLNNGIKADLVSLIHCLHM
In words: FLIPR/Ca2+ functional activity at recombinant human NPY Y5 receptor. Conditions: HEK 293 signal-hNPY Y5/G16z49 cells; inhibition of calcium release by PYY at EC80; Cheng-Prusoff; read-out: fpKi. Format: cell-based. From the text:
The functional activity of the compounds of the invention for the NPY Y5 receptor may be determined by the FLIPR/Ca^2+ assay as described below. Such potency is typically calculated from the IC50 obtained in FLIPR experiments as the concentration of a compound necessary to decrease 50% of the calcium release following cells exposure to a concentration of PYY eliciting 80% response (i.e. EC80), and is reported as a “fKi” value calculated by the following equation: […]
where EC80 and EC50 corresponding to the agonist (PYY) concentrations that eliciting 80% and 50% response, respectively (corresponding to the Cheng and Prusoff equation). In the context of the present invention pfKi values (corresponding to the […] of fKi) are used instead of fKi; pfKi results are only estimated to be accurate to about 0.3-0.5.
The functional activity at the human NPY Y5 receptor stably expressed in HEK293 cells was assessed using FLIPR/Ca^2+ methodology (cell line name: HEK 293 signal-hNPY Y5/G16z49). The assay is configured to re-direct receptor-mediated signalling to the calcium release from intracellular stores via the promiscuous Gal 6z49 protein. PYY (peptide YY) is an endogenous agonist and can activate the receptor, thereupon causing an increase in the level of calcium in the cells sensed by Fluo4-AM and measured by FLIPR. Antagonist effects are monitored by the blockade or decrease in calcium release once cells co-expressing hNPY Y5 receptor and Ga16z49 are exposed to a concentration of PYY eliciting 80% response (i.e. EC80). A non-linear, 4 parameter logistic curve-fit of the data generated pIC50 value. Applying the Cheng-Prusoff equation to antagonist concentration-response for inhibition of fixed PYY concentration yielded the fpKi values.
Cells are cultured in DMEM/F12 supplemented with 10% FBS, 2 mM Glutamine, 200 μg/ml hygromycin B and 500 μg/ml G418. The day before a FLIPR experiment, cells are plated out into 384-well Poly-D-Lysine coated FLIPR plates at a density of 200'000 cells/ml corrects to give 10'000 cells per 50 μL per well using medium without antibiotics. On the day of experiment, cells are washed with an assay buffer containing 20 mM HEPES/NaOH, 145 mM NaCl, 5 mM KCl, 1 mM MgCl2, 2 mM CaCl2, 1 g/L D-glucose and 2.5 mM probenecid, pH 7.3 and loaded with 2 μM Fluo-4 AM for 60 min at 37° C. and 5% CO2. The excess of dye solution is removed by washing cells with buffer. Compound solutions, prepared by serially diluting compounds in neat DMSO and then a final 1:50 dilution step in assay buffer added with 0.05% pluronic acid, are added and incubated with the loaded cells for 30 min at 37° C. and 5% CO2.
Cells are then put in the FLIPR for the stimulus addition corresponding to a concentration of PYY eliciting 80% of the response. The response of cells to the agonist is fast and measured for 2 min after PYY addition.
Turning to `O=C1O[C@]2(CC[C@H](CNc3ccc(-c4cc(F)cc(F)c4)nn3)CC2)CN1c1cccnn1` [Example 4-3, (Trans)-8-({[6-(3,5-difluorophenyl)-3-pyridazinyl]amino}methyl)-3-(3-pyridazinyl)-1-oxa-3-azaspiro[4.5]decan-2-one Dihydrochloride], the Ki is no more than 0.1 nM.

For `O=C1O[C@]2(CC[C@H](CNc3ccc(-c4ccccc4F)nn3)CC2)CN1c1cccnc1F` [Example 4-7, (Trans)-8-({[6-(2-fluorophenyl)-3-pyridazinyl]amino}methyl)-3-(2-fluoro-3-pyridinyl)-1-oxa-3-azaspiro[4.5]decan-2-one Hydrochloride], the Ki was no more than 0.316 nM. On the same count and under the same terms, the result for `O=C1O[C@]2(CC[C@H](CNc3ccc(-c4ccccc4)nn3)CC2)CN1c1cccnn1` [Example 4-38, (Trans)-8-{[(6-phenyl-3-pyridazinyl)amino]methyl}-3-(3-pyridazinyl)-1-oxa-3-azaspiro[4.5]decan-2-one Dihydrochloride] reads no more than 1 nM. Turning to `Cc1cc(N2C[C@]3(CC[C@@H](CNc4ccc(-c5ccccc5C)nn4)CC3)OC2=O)ccn1` [Example 4-39, (Trans)-8-({[6-(2-methylphenyl)-3-pyridazinyl]amino}methyl)-3-(2-methyl-4-pyridinyl)-1-oxa-3-azaspiro[4.5]decan-2-one Dihydrochloride], the Ki was no more than 0.1 nM. Turning to `O=C1O[C@]2(CC[C@H](CNc3ccc(-c4cccc(C(F)(F)F)c4)nn3)CC2)CN1c1cccnn1` [Example 4-40, (Trans)-3-(3-pyridazinyl)-8-[({6-[3-(trifluoromethyl)phenyl]-3-pyridazinyl}amino)methyl]-1-oxa-3-azaspiro[4.5]decan-2-one Hydrochloride], the Ki was no more than 0.1 nM.

In the case of `O=C1O[C@]2(CC[C@H](CNc3ccc(Oc4ccccc4OC(F)(F)F)nn3)CC2)CN1c1cccnn1` [Example 4-56, (Trans)-3-(3-pyridazinyl)-8-({[6-({2-[(trifluoromethyl)oxy]phenyl}oxy)-3-pyridazinyl]amino}methyl)-1-oxa-3-azaspiro[4.5]decan-2-one], the Ki is no more than 0.1 nM.

The same assay, now with this note: assay not given; towards NPY Y5 receptor.
For `Cl.O=C1OC2(CCC(CNc3cc(-c4ccccc4)ccn3)CC2)CN1c1cccnn1` (stereo not drawn) [Example 1-39, (Trans)-8-{[(4-phenyl-2-pyridinyl)amino]methyl}-3-(3-pyridazinyl)-1-oxa-3-azaspiro[4.5]decan-2-one hydrochloride], the “activity at the highest concentration set by the experiment” value (“activity” below) is “don't show activity”. Turning to `Cl.Cl.O=C1OC2(CCC(CNc3ccc(C(F)(F)F)nc3)CC2)CN1c1cccnc1` (stereo not drawn) [Example 1-55, (Trans)-3-(3-pyridinyl)-8-({[6-(trifluoromethyl)-3-pyridinyl]amino}methyl)-1-oxa-3-azaspiro[4.5]decan-2-one Dihydrochloride], the “activity” value is on record as “don't show activity”. The same measure, in the same setting: the result for `Cl.Cl.O=C1O[C@]2(CC[C@H](CNc3ccc(N4CCOCC4)nc3)CC2)CN1c1ccccn1` [Example 1-57, (Trans)-8-({[6-(4-morpholinyl)-3-pyridinyl]amino}methyl)-3-(2-pyridinyl)-1-oxa-3-azaspiro[4.5]decan-2-one.dihydrochloride] reads “don't show activity”. Still for that read-out and setting: the result for `Cn1ccnc1-c1cnc(NCC2CCC3(CC2)CN(c2ccccn2)C(=O)O3)nc1` (stereo not drawn) [Example 3-6, (Trans)-8-({[5-(1-methyl-1H-imidazol-2-yl)-2-pyrimidinyl]amino}methyl)-3-(2-pyridinyl)-1-oxa-3-azaspiro[4.5]decan-2-one] reads “don't show activity”; that for `O=C1OC2(CCC(CNc3ncc(Br)cn3)CC2)CN1c1ccccn1` (stereo not drawn) [Example 3-7, (Trans)-8-{[(5-bromo-2-pyrimidinyl]amino}methyl)-3-(2-pyridinyl)-1-oxa-3-azaspiro[4.5]decan-2-one], “don't show activity”. Still for that read-out and setting: the result for `O=C1OC2(CCC(CNc3ncc(-c4ccnnc4)cn3)CC2)CN1c1ccccn1` (stereo not drawn) [Example 3-9, (Trans)-8-({[5-(4-pyridazinyl)-2-pyrimidinyl]amino}methyl)-3-(2-pyridinyl)-1-oxa-3-azaspiro[4.5]decan-2-one] reads “don't show activity”; that for `Cl.O=C1OC2(CCC(CNc3nccc(OCc4ccccc4)n3)CC2)CN1c1cccnn1` (stereo not drawn) [Example 3-12, (Trans)-8-[({4-[(phenylmethyl)oxy]-2-pyrimidinyl}amino)methyl]-3-(3-pyridazinyl)-1-oxa-3-azaspiro[4.5]decan-2-one hydrochloride], “don't show activity”; that for `CC(C)(C)OCCOc1ccc(NCC2CCC3(CC2)CN(c2cccnn2)C(=O)O3)nn1.Cl.Cl` (stereo not drawn) [Example 4-10, (Trans)-8-({[6-({2-[(1,1-dimethylethyl)oxy]ethyl}oxy)-3-pyridazinyl]amino}methyl)-3-(3-pyridazinyl)-1-oxa-3-azaspiro[4.5]decan-2-one dihydrochloride], “don't show activity”. On to `O=C1OC2(CCC(CNc3ccc(Cl)nn3)CC2)CN1c1ccccn1` (stereo not drawn) [Example 4-12, (Trans)-8-{[(6-chloro-3-pyridazinyl)amino]methyl}-3-(2-pyridinyl)-1-oxa-3-azaspiro[4.5]-decan-2-one], for which the “activity” value is recorded as “don't show activity”.

As to `Cl.O=C1OC2(CCC(CNc3nsc4ccccc34)CC2)CN1c1cccnn1` (stereo not drawn) [Example 5-5, (Trans)-8-[(1,2-benzisothiazol-3-ylamino)methyl]-3-(3-pyridazinyl)-1-oxa-3-azaspiro[4.5]-decan-2-one Hydrochloride], the “activity” value is “don't show activity”.

For the compound “(Trans)-8-({[4-(1-pyrimidinyl)-2-pyrimidinyl]amino}methyl)-3-(3-pyridazinyl)-1-oxa-3-azaspiro[4.5]decan-2-one Dihydrochloride [Example 3-11]”, the “activity” value is reported as “don't show activity”.
